Measurements: patent publication US11884706B2, “Immunomodulating peptide derived from concave-eared torrent frog and use thereof” (priority 2019, dated 2024)

How the values were obtained:
MAPKs (ERK, JNK subunit) = assay: Activation of MAPKs signaling in BMDMs; format: cell-based, mouse; details: BMDMs, 0, 25, 50, 100 μg/mL, 30 min
Experimental: Mouse bone marrow-derived macrophages (BMDMs) were inoculated into a 6-well plate and cultured without serum for 16 h. For the detection of MAPKs and NF-κB, BMDMs were incubated with different concentrations of Ot-WHP (0, 25, 50, 100 μg/mL) for 30 min. For the detection of TGF-β/Smad signaling pathway, BMDMs were incubated with different concentrations of Ot-WHP (0, 25, 50, 100 μg/mL) for 24 h, or BMDMs were incubated with 100 μg/mL Ot-WHP, with or without TGF-β1 antibody.

Keratinocytes HaCat = assay: Keratinocyte proliferation, direct (CCK-8); format: cell-based; details: HaCat, 25, 50, 100 μg/mL, 24 h
Experimental: Keratinocytes HaCat and mouse fibroblasts (5×10^3 cells/well, 100 μL/well) were inoculated into a 96-well plate, and incubated with different concentrations of Ot-WHP (25, 50, and 100 μg/mL). PBS was used as a control. After HaCat was incubated with Ot-WHP for 24 h, and the fibroblasts were incubated with Ot-WHP for 72 h, 10 μl of Cell Counting Kit-8 (CCK-8) solution was added to each well, and incubated for another 2-4 h at 37° C. The absorbency at 450 nm was detected on a microplate reader.

[1] = test system: bone marrow-derived macrophages (BMDMs); assay: Transwell migration, direct (peptide in lower chamber); format: cell-based, mouse; details: 25-100 μg/mL, 8 h, no macrophages in lower chamber
Experimental: To clarify how Ot-WHP chemoattracts neutrophils and macrophages to the wound area, the prepared mouse neutrophils or bone marrow-derived macrophages (BMDMs) were resuspended in RPMI 1640 medium containing 2% FBS at a cell density of 7×10^6 cells/mL. 100 μL was pipetted to a Transwell chamber with a pore size of 3.0 μm (upper chamber, 24-well plate). Then 500 μL of Ot-WHP (25, 50, 100 μg/mL, dissolved in RPMI 1640 medium containing 2% FBS) or the culture medium (control) was pipetted to the lower chamber, and then cultured in a cell incubator at 37° C. for 8 h. The cells in the lower chamber were collected and counted with a hemocytometer.

mouse fibroblasts = assay: Fibroblast proliferation, co-incubation with mouse macrophages BMDMs (CCK-8); format: cell-based; details: mouse fibroblasts with BMDMs, 25, 50, 100 μg/mL, 72 h
Experimental: (§1) HaCat was co-incubated with THP-1 derived macrophages, and mouse fibroblasts were co-incubated with mouse macrophages BMDMs. HaCat (1×10^5 cells/well) or mouse fibroblasts (1×10^5 cells/well) were inoculated into a 24-well plate (lower chamber) one day in advance. After adherence, corresponding macrophages (1×10^5 cells/well, 100 μL) and different concentrations of Ot-WHP (25, 50, 100 μg/mL) or Vehicle (PBS, control) were added to the co-incubation chamber (upper chamber). After HaCat was co-incubated with THP-1-derived macrophages for 24 h, and the fibroblasts were co-incubated with mouse macrophages BMDMs for 72 h, the co-incubated upper chamber was discarded, and the cell activity in the lower chamber was detected by CCK-8.

macrophages = assay: Immunohistochemical count of macrophages (anti-F4/80) recruited to the wound; format: in vivo, mice; details: natural Ot-WHP dripped to wound; days 2 and 3 after operation; vs negative control
Experimental: The mice were treated according to the method in Example 3. The drugs in the negative control group and the natural Ot-WHP group were dripped to wounds of corresponding mice. At specified time point (0.5, 1, 2, 3 days) after the operation, the mice were sacrificed. A biopsy tissue containing the wound center was taken, immobilized with 10% formalin, then dehydrated by ethanol, washed with xylene, and finally embedded in paraffin. The paraffin block was cut into 5 μm slices, deparaffinized, and hydrated, and antigen retrieval was performed for immunohistochemical analysis. The slice was blocked with 5% BSA for non-specific sites, incubated with the primary antibody (anti-Ly6G for neutrophils, and anti-F4/80 for macrophages) at 4° C., and immunostained with horseradish peroxidase and DBA. The infiltration by neutrophils and macrophages was measured by statistically counting the immunostained anti-Ly6G and anti-F4/80 cells.
FIGS. 4A1-A4 show the immunohistochemical results of neutrophils recruited on days 0.5 and 1 after operation of mice in different groups. FIGS. 4C1-C4 show the immunohistochemical results of macrophages recruited on days 2 and 3 after operation of mice in different groups. FIGS. 4B1-B2 show the statistical results of neutrophils recruited on days 0.5 and 1 after operation of mice in different groups. […]

α-SMA in fibroblasts = assay: α-SMA expression in fibroblasts by Western blot, co-incubation with macrophages; format: cell-based, mouse; details: fibroblasts co-incubated with macrophages
Experimental: as §1
The method was the same as that in Example 8. The fibroblasts treated in Example 8 were lysed with RIPA cell lysis solution. The protein was extracted, and the expression of α-SMA was detected by Western blot. A higher expression level of α-SMA means a higher transformation of fibroblasts into […]. The supernatant of the fibroblasts treated in Example 8 was collected, and the production of collagen in the supernatant was quantitatively detected with an ELISA kit.

[2] = test system: mouse bone marrow-derived macrophages (BMDMs); assay: Chemokine and cytokine production in BMDM supernatant; format: cell-based; details: 25, 50, 100 μg/mL, 24 h, vs PBS
Experimental: To clarify why Ot-WHP can cause the migration of neutrophils and macrophages in the coexistence of macrophages, mouse bone marrow-derived macrophages (BMDMs, 5×10^5 cells/well, DMEM medium, 2% FBS) were plated in a 24-well plate, Ot-WHP (25, 50, 100 μg/mL) or an equal volume of PBS (Vehicle) were added, and cultured for 24 h. The supernatant was collected, and centrifuged at 10000×g for 10 min. The chemokines and cytokines were determined.

skin wounds of mice = assay: Chemokine and cytokine production in skin wound tissue homogenate; format: in vivo; details: days 0, 0.5, 1, 2, 4, 6, vs PBS
Experimental: Then whether Ot-WHP can induce the production of chemokines and cytokines in the skin wounds of mice was tested. At specified time points (days 0, 0.5, 1, 2, 4, and 6), the wound tissue of the mice was removed and homogenized with 0.1 M PBS (containing 1 mM PMSF, 1 mL/g tissue) in a glass homogenizer. After the homogenization, the homogenate was centrifuged at 12000×g and 4° C. for 30 min. The supernatant was collected, and the chemokines (CXCL1 and CCL2) and cytokines (including TNF-α and TGF-β1) were determined.

Ot-WHP: immunomodulating peptide of 24 amino acids from concave-eared torrent frog skin, sequence ATAWDLGPHGIRPLRPIRIRPLCG (SEQ ID NO:1); natural (purified) or chemically synthesized (Ot-WHP Peptide; listed as Odorrana tormota)
activation of MAPKs (ERK, JNK subunit) signaling pathway (MAPKs (ERK, JNK subunit)): activates
proliferation of keratinocytes, direct (Keratinocytes HaCat): cannot directly promote the proliferation
migration of macrophages, direct [1]: does not directly cause the migration
proliferation of fibroblasts when macrophages coexist (mouse fibroblasts): can promote the proliferation
migration of macrophages to the wound (macrophages): promote the migration of neutrophils and macrophages to the wound
expression of α-SMA by fibroblasts (transformation into fibrocytes) with coexisting macrophages (α-SMA in fibroblasts): promote the expression of α-SMA by fibroblast
CCL2 production in BMDMs [2]: induces mouse BMDMs to produce
CXCL1 production in BMDMs [2]: induces mouse BMDMs to produce
CXCL2 production in BMDMs [2]: induces mouse BMDMs to produce
CXCL3 production in BMDMs [2]: induces mouse BMDMs to produce
IL-1β production in BMDMs [2]: induces mouse BMDMs to produce
IL-6 production in BMDMs [2]: induces mouse BMDMs to produce
TGF-β1 production in BMDMs [2]: induces mouse BMDMs to produce
TNF-α production in BMDMs [2]: induces mouse BMDMs to produce
CCL2 production in skin wounds (skin wounds of mice): effectively induce the production
CXCL1 production in skin wounds (skin wounds of mice): effectively induce the production
TGF-β1 production in skin wounds (skin wounds of mice): effectively induce the production
TNF-α production in skin wounds (skin wounds of mice): effectively induce the production
